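Five compound concentrations were applied to cells in 96-well plates for 48 hours; endpoints were derived by simple linear interpolation of the resulting dose-response curve. TGI denotes the concentration required for complete inhibition of growth.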
What was measured:
Test in all cases: inhibition of tumour cell growth, NCI panel, 48 h
786-0 renal = test system: 786-0 renal
A498 renal = test system: A498 renal
A549 NSCLC = test system: A549 NSCLC
ACHN renal = test system: ACHN renal
BT-549 breast = test system: BT-549 breast
CAKI-1 renal = test system: CAKI-1 renal
CCRF-CEM leukemia = test system: CCRF-CEM leukemia
COLO 205 colon = test system: COLO 205 colon
DU-145 prostate = test system: DU-145 prostate
EKVX NSCLC = test system: EKVX NSCLC
HCC-2998 colon = test system: HCC-2998 colon
HCT-116 colon = test system: HCT-116 colon
HCT-15 colon = test system: HCT-15 colon
HL-60(TB) leukemia = test system: HL-60(TB) leukemia
HOP-62 NSCLC = test system: HOP-62 NSCLC
HOP-92 NSCLC = test system: HOP-92 NSCLC
HS 578T breast = test system: HS 578T breast
HT29 colon = test system: HT29 colon
IGROV1 ovarian = test system: IGROV1 ovarian
K-562 leukemia = test system: K-562 leukemia
KM12 colon = test system: KM12 colon
LOX IMVI melanoma = test system: LOX IMVI melanoma
MALME-3M melanoma = test system: MALME-3M melanoma
MCF7 breast = test system: MCF7 breast
MDA-MB-231 breast = test system: MDA-MB-231 breast
MDA-MB-435 = test system: MDA-MB-435
MDA-N = test system: MDA-N
MOLT-4 leukemia = test system: MOLT-4 leukemia
NCI-H226 lung = test system: NCI-H226 lung
NCI-H23 lung = test system: NCI-H23 lung
NCI-H460 lung = test system: NCI-H460 lung
NCI-H522 lung = test system: NCI-H522 lung
NCI/ADR-RES ovarian = test system: NCI/ADR-RES ovarian
OVCAR-3 ovarian = test system: OVCAR-3 ovarian
OVCAR-4 ovarian = test system: OVCAR-4 ovarian
OVCAR-5 ovarian = test system: OVCAR-5 ovarian
OVCAR-8 ovarian = test system: OVCAR-8 ovarian
PC-3 prostate = test system: PC-3 prostate
RPMI-8226 leukemia = test system: RPMI-8226 leukemia
RXF 393 renal = test system: RXF 393 renal
SF-268 CNS = test system: SF-268 CNS
SF-295 CNS = test system: SF-295 CNS
SF-539 CNS = test system: SF-539 CNS
SK-MEL-2 melanoma = test system: SK-MEL-2 melanoma
SK-MEL-28 melanoma = test system: SK-MEL-28 melanoma
SK-MEL-5 melanoma = test system: SK-MEL-5 melanoma
SN12C renal = test system: SN12C renal
SNB-75 CNS = test system: SNB-75 CNS
SR leukemia = test system: SR leukemia
SW-620 colon = test system: SW-620 colon
T-47D breast = test system: T-47D breast
TK-10 renal = test system: TK-10 renal
U251 CNS = test system: U251 CNS
UACC-257 melanoma = test system: UACC-257 melanoma
UACC-62 melanoma = test system: UACC-62 melanoma
UO-31 renal = test system: UO-31 renal
M14 melanoma = test system: M14 melanoma
SNB-19 CNS = test system: SNB-19 CNS
SK-OV-3 ovarian = test system: SK-OV-3 ovarian

CS(=O)(=O)N1CC(CCl)c2ccc(O)cc21 (centres undefined)
TGI (786-0 renal): 11.6 µM | TGI (A498 renal): 3.78 µM | TGI (A549 NSCLC): 11.1 µM | TGI (ACHN renal): 12.4 µM | TGI (BT-549 breast): 8.35 µM | TGI (CAKI-1 renal): 12.3 µM | TGI (CCRF-CEM leukemia): 23.8 µM | TGI (COLO 205 colon): 4.34 µM | TGI (DU-145 prostate): 11.3 µM | TGI (EKVX NSCLC): 16.3 µM | TGI (HCC-2998 colon): 4.2 µM | TGI (HCT-116 colon): 11.1 µM | TGI (HCT-15 colon): 18.6 µM | TGI (HL-60(TB) leukemia): 6.19 µM | TGI (HOP-62 NSCLC): 13 µM | TGI (HOP-92 NSCLC): 9.05 µM | TGI (HS 578T breast): 90.9 µM | TGI (HT29 colon): 14.2 µM | TGI (IGROV1 ovarian): 4.5 µM | TGI (K-562 leukemia): > 100 µM | TGI (KM12 colon): 7.83 µM | TGI (LOX IMVI melanoma): 14.4 µM | TGI (MALME-3M melanoma): 5 µM | TGI (MCF7 breast): > 100 µM | TGI (MDA-MB-231 breast): 6.16 µM | TGI (MDA-MB-435): 3.86 µM | TGI (MDA-N): 3.54 µM | TGI (MOLT-4 leukemia): > 100 µM | TGI (NCI-H226 lung): 6.83 µM | TGI (NCI-H23 lung): 7.6 µM | TGI (NCI-H460 lung): 11.3 µM | TGI (NCI-H522 lung): 5.8 µM | TGI (NCI/ADR-RES ovarian): 17.4 µM | TGI (OVCAR-3 ovarian): 9.3 µM | TGI (OVCAR-4 ovarian): 9.9 µM | TGI (OVCAR-5 ovarian): 16.3 µM | TGI (OVCAR-8 ovarian): 7.33 µM | TGI (PC-3 prostate): 5.88 µM | TGI (RPMI-8226 leukemia): 6.91 µM | TGI (RXF 393 renal): 4.19 µM | TGI (SF-268 CNS): 3.61 µM | TGI (SF-295 CNS): 11.6 µM | TGI (SF-539 CNS): 5.05 µM | TGI (SK-MEL-2 melanoma): 8.94 µM | TGI (SK-MEL-28 melanoma): 14.2 µM | TGI (SK-MEL-5 melanoma): 3.46 µM | TGI (SN12C renal): 14.5 µM | TGI (SNB-75 CNS): 8.4 µM | TGI (SR leukemia): 77.4 µM | TGI (SW-620 colon): 11.5 µM | TGI (T-47D breast): 48.2 µM | TGI (TK-10 renal): 6.98 µM | TGI (U251 CNS): 10.3 µM | TGI (UACC-257 melanoma): 5.95 µM | TGI (UACC-62 melanoma): 28.7 µM | TGI (UO-31 renal): 5.79 µM

COc1ccc(C2c3cc4c(cc3OC(N3CCOCC3)C2C)OCO4)cc1 (centres undefined)
TGI (786-0 renal): > 100 µM | TGI (A498 renal): 34.8 µM | TGI (A549 NSCLC): > 90.6 µM | TGI (ACHN renal): > 100 µM | TGI (BT-549 breast): > 100 µM | TGI (CAKI-1 renal): 55.1 µM | TGI (CCRF-CEM leukemia): > 78.2 µM | TGI (COLO 205 colon): > 100 µM | TGI (DU-145 prostate): > 100 µM | TGI (EKVX NSCLC): > 100 µM | TGI (HCC-2998 colon): 67 µM | TGI (HCT-116 colon): > 100 µM | TGI (HCT-15 colon): > 100 µM | TGI (HL-60(TB) leukemia): 91.2 µM | TGI (HOP-62 NSCLC): > 72.2 µM | TGI (HOP-92 NSCLC): 58.2 µM | TGI (HS 578T breast): 63 µM | TGI (HT29 colon): > 67.6 µM | TGI (IGROV1 ovarian): > 100 µM | TGI (K-562 leukemia): > 31.6 µM | TGI (KM12 colon): > 100 µM | TGI (LOX IMVI melanoma): > 79.5 µM | TGI (M14 melanoma): > 89 µM | TGI (MALME-3M melanoma): 40.7 µM | TGI (MCF7 breast): > 71.5 µM | TGI (MDA-MB-435): > 60.4 µM | TGI (MDA-N): > 82 µM | TGI (MOLT-4 leukemia): > 31.6 µM | TGI (NCI-H23 lung): > 100 µM | TGI (NCI-H460 lung): > 100 µM | TGI (NCI-H522 lung): > 82 µM | TGI (NCI/ADR-RES ovarian): > 91.2 µM | TGI (OVCAR-3 ovarian): > 86.1 µM | TGI (OVCAR-4 ovarian): > 100 µM | TGI (OVCAR-5 ovarian): > 87.5 µM | TGI (OVCAR-8 ovarian): > 100 µM | TGI (PC-3 prostate): > 100 µM | TGI (RPMI-8226 leukemia): 61.7 µM | TGI (RXF 393 renal): 63.3 µM | TGI (SF-268 CNS): > 100 µM | TGI (SF-295 CNS): 67.5 µM | TGI (SF-539 CNS): 68.6 µM | TGI (SK-MEL-2 melanoma): > 71 µM | TGI (SK-MEL-28 melanoma): > 88 µM | TGI (SK-MEL-5 melanoma): 72.4 µM | TGI (SN12C renal): > 100 µM | TGI (SNB-19 CNS): > 96.7 µM | TGI (SNB-75 CNS): > 100 µM | TGI (SR leukemia): > 76.1 µM | TGI (SW-620 colon): > 100 µM | TGI (T-47D breast): 61.6 µM | TGI (TK-10 renal): > 100 µM | TGI (U251 CNS): 68.1 µM | TGI (UACC-257 melanoma): > 100 µM | TGI (UACC-62 melanoma): > 95.6 µM | TGI (UO-31 renal): > 100 µM

Oc1ccc(/C=C/c2cc(O)cc3c2C(c2cc(O)cc(O)c2)C(c2ccc(O)c(O)c2)O3)cc1 (centres undefined)
TGI (786-0 renal): > 100 µM | TGI (A498 renal): > 100 µM | TGI (A549 NSCLC): > 100 µM | TGI (ACHN renal): 33.8 µM | TGI (BT-549 breast): 64.4 µM | TGI (CAKI-1 renal): 98.1 µM | TGI (CCRF-CEM leukemia): > 100 µM | TGI (COLO 205 colon): 45.1 µM | TGI (DU-145 prostate): > 100 µM | TGI (EKVX NSCLC): > 100 µM | TGI (HCC-2998 colon): 57.4 µM | TGI (HCT-116 colon): > 100 µM | TGI (HCT-15 colon): 45.4 µM | TGI (HL-60(TB) leukemia): 54.5 µM | TGI (HOP-62 NSCLC): > 100 µM | TGI (HOP-92 NSCLC): > 100 µM | TGI (HS 578T breast): 88.8 µM | TGI (HT29 colon): 47.6 µM | TGI (IGROV1 ovarian): > 100 µM | TGI (KM12 colon): 87.4 µM | TGI (LOX IMVI melanoma): > 100 µM | TGI (M14 melanoma): > 100 µM | TGI (MALME-3M melanoma): 80.6 µM | TGI (MCF7 breast): > 100 µM | TGI (MDA-MB-231 breast): 68 µM | TGI (MDA-MB-435): > 100 µM | TGI (MDA-N): 56.9 µM | TGI (MOLT-4 leukemia): 33.5 µM | TGI (NCI-H226 lung): > 100 µM | TGI (NCI-H23 lung): 63.9 µM | TGI (NCI-H522 lung): 83 µM | TGI (NCI/ADR-RES ovarian): > 100 µM | TGI (OVCAR-3 ovarian): 56.4 µM | TGI (OVCAR-4 ovarian): 41.2 µM | TGI (OVCAR-5 ovarian): > 100 µM | TGI (OVCAR-8 ovarian): 68.2 µM | TGI (PC-3 prostate): > 100 µM | TGI (RPMI-8226 leukemia): 40.6 µM | TGI (RXF 393 renal): > 100 µM | TGI (SF-268 CNS): > 100 µM | TGI (SF-295 CNS): > 100 µM | TGI (SF-539 CNS): > 100 µM | TGI (SK-MEL-2 melanoma): 74.8 µM | TGI (SK-MEL-28 melanoma): > 100 µM | TGI (SK-MEL-5 melanoma): 34.7 µM | TGI (SK-OV-3 ovarian): > 100 µM | TGI (SN12C renal): > 100 µM | TGI (SNB-19 CNS): 54.3 µM | TGI (SNB-75 CNS): > 100 µM | TGI (SR leukemia): 55.4 µM | TGI (SW-620 colon): > 100 µM | TGI (T-47D breast): > 100 µM | TGI (TK-10 renal): > 100 µM | TGI (U251 CNS): > 100 µM | TGI (UACC-257 melanoma): > 100 µM | TGI (UACC-62 melanoma): 42.4 µM | TGI (UO-31 renal): > 100 µM

Source: PubChem BioAssay (NCI)
